Assay results published in US9206137B2, “N-Aryl pyrazole(thio)carboxamides” (BAYER INTELLECTUAL PROPERTY GMBH, priority 2010, dated 2015).

Test system: Sphaerotheca fuliginea
Experiment: Sphaerotheca test (cucumber)/preventive
Assay type: in vivo
Conditions: preventive
Description: One day after this treatment, the plants are inoculated with an aqueous spore suspension of Sphaerotheca fuliginea.

## Cc1ccccc1-c1ccccc1NC(=O)c1c(C(F)F)nn(C)c1F [102 from WO-2007/006806, 3-(difluoromethyl)-5-fluoro-1-methyl-N-(2′-methylbiphenyl-2-yl)-1H-pyrazole-4-carboxamide]
Table A, dose 500 ppm
  efficacy: 20%
500 ppm of active ingredient, evaluated 7 days after inoculation
  efficacy: less than 20%
